The values below come from publication PMC10650486, “Fluoroquinolone-Based Organic Salts (GUMBOS) with Antibacterial Potential” (International Journal of Molecular Sciences, 2023).

Entries after “also recorded” stand apart in the source; their conditions may differ. Where a name gives a salt, the structure may show the parent alone. Read-outs that look alike come from different tables or passages of the source.

Data set [1] in a line: Thermogravimetric analysis (TGA), thermal stability. The format is physicochemical. Particulars: for Tonset / Tpeak / Tstart: 10 °C min^−1, N2 atmosphere; for Residue at 500 °C: mass residue remaining at 500 °C; for Tpeak: temperature at highest degradation rate; for Tstart: temperature where weight loss starts. The protocol: Thermogravimetric analysis (TGA) was executed using a Hi-Res modulated TGA 2950 thermogravimetric analyzer (TA Instruments, New Castle, DE, USA) and curves were obtained for all GUMBOS. Approximately 1-3 mg of GUMBOS was placed in a platinum pan and heated from 25 °C to 575 °C at a slow heating rate of 10 °C min^-1. Some characteristic parameters were extrapolated. For DSC and TGA, onset temperatures (Tonset) were determined as the temperature value matching the intersection point of the extrapolated initial baseline and the tangent or line through the linear section of the leading edge of the Tpeak point where the Tpeak was the temperature value at the highest degradation rate. For TGA, additional data were collected such as the temperature value where weight loss starts ([…]), and the percentage of mass residue remaining at 500 °C which allows evaluation of the short-term stability. All these parameters were extrapolated using the software NETZSCH Proteus® version 6.1081 (Netzsch-Gerätebau GmbH, Selb, Germany) for DSC analysis and Universal Analysis 2000 version 4.5A (TA Instruments-Waters LLC, New Castle, DE, USA) for TGA analysis.

Data set [2] in a line: Octanol/water partition coefficient, shake-flask method. The format is physicochemical. Particulars: for logKO/W ± SD: octanol/water, shake-flask, mean ± standard deviation; for relative hydrophobicity from log KO/W: ranking within the [Cip]-based or [Mox]-based GUMBOS. The protocol: Following synthesis and structural characterization of FQ-based GUMBOS, octanol/water partition coefficient (Ko/w) values were obtained through a shake-flask method with minor modifications. Initially, water and 1-octanol were saturated by agitation for 24 h at room temperature. GUMBOS were solubilized in 5 mL of water-saturated octanol (Ci), to which an equivalent volume of octanol-saturated water was added. This solution subjected to 24 h of agitation and the absorbance of the upper layer was measured at a wavelength of 280 nm. Sample concentration in octanol (Co) was determined through a calibration curve, which was created using six solutions of different concentrations (4–30 μmol·L^−1) of GUMBOS in 1-octanol. Later, GUMBOS concentration in water (Cw) were obtained by the following equation Ci − C0 = Cw. Octanol/water partition coefficient (Ko/w) values were then calculated using Ko/w = Co/Cw. Data were representative of three replicates executed for each of the GUMBOS.

For data set [3], the system named is Staphylococcus aureus subsp. aureus Rosenbach ATCC 25923. The data set is described as follows: Antibacterial susceptibility testing, broth microdilution, bacterial growth by absorbance at 630 nm. It counts as cell-based. The protocol:
To evaluate the antimicrobial profile, a study was performed using the broth microdilution standard method with minor modifications using DMSO as solvent. Standard laboratory strains of Gram-positive Staphylococcus aureus subsp. aureus Rosenbach ATCC 25923 and Gram-negative Escherichia coli O157:H7 were studied. TSB was used as the culture medium for bacteria and samples with bacteria in media were considered positive controls.
Antibacterial activity of GUMBOS was evaluated by comparing it with negative controls, as well as with the antibacterial activity of the parent compounds, [Cip][HCl] and [Mox][HCl]. […] These values are determined through laboratory testing and can vary depending on the testing methodology and conditions, thus the range increase in this study to 25 mg·L^−1. Stock solutions were prepared using water for water-soluble compounds while non-water soluble compounds were reconstituted using a deionized water solution containing 5% DMSO [96]. Following that, the compounds were diluted using fresh tryptic soy broth (TSB) to achieve desired concentrations. Initially, agar media was used to grow additional bacteria to correlate absorbance readings to microbial counts. Then, a solution of 0.1 mL of S. aureus added to 10 mL of TSB was incubated at 37 °C for 24 h and repeated for three more days until enough bacteria was obtained. After centrifugation and washing steps with PBS (1×) solution until obtaining a homogenized pellet, the inoculum was then diluted to 0.06 absorbance at 630 nm or 0.5 McFarland [97]. After compounds were diluted in TSB, 100 μL of samples with 100 μL of S. aureus inoculum were then transferred to a 96-well flat bottom microtitre plate (TPP, Switzerland) which was sealed and left in incubation at 37 °C for 24 h. Absorbance was read at 630 nm with a BioTek universal microplate reader (Agilent Technologies, VT, USA) to determine the turbidity in the wells [97, 98]. Three wells were prepared per sample. To ensure the viability and growth of bacteria in the culture media, negative controls were conducted along with a positive culture using the media containing only the bacteria. [Cip][HCl] served as the reference antibacterial agent.
A general note: Broth dilution looks for growth in wells or tubes with falling amounts of substance.

Data set [4] deals with L929 mouse fibroblast cells. The data set is described as follows: Cytotoxicity evaluation, resazurin reduction assay. It counts as cell-based. Conditions: 24 h exposure. The protocol:
To assess the impact of GUMBOS on cell viability, the resazurin assay was employed using L929 mouse fibroblast cells as described previously by Page et al.. The L929 cells were cultured at 37 °C in a 5% CO2 atmosphere, utilizing DMEM supplemented with 10% FBS and 1% streptomycin/gentamycin. Once the cell culture reached 70–80% confluence, it was detached using a 0.25% (w/v) trypsin-ethylenediaminetetraacetic acid (EDTA) solution. The cells were then subjected to centrifugation with the Heraeus Multifuge X1R centrifuge (Thermo Fisher Scientific; Waltham, MA, USA) and resuspended in fresh medium. Viable cell counts were obtained through a Neubauer chamber (Improved Neubauer Bright-Line, Boeco; Hamburg, Germany).
For experiments, L929 cells were seeded at a density of 5 × 10^4 cells per well in 96-well microplates and supplemented with DMEM medium. Plates were placed in a humidified incubator at 37 °C with 5% CO2 for 24 h to allow cell attachment and growth. Subsequently, the culture medium was replaced with different concentrations of each sample being tested. After 24h incubation, the medium was replaced with fresh culture medium containing 10% resazurin. Cells were then incubated for 4 h in the dark at 37 °C with 5% CO2 to allow resazurin conversion. Fluorescence of resorufin was measured using a plate reader (Synergy HT plate reader-Biotek Instruments, Winooski, VT, USA) with excitation at 560 nm and emission at 590 nm. Negative control wells contained only culture medium, while positive control wells contained the cation precursor, the active pharmaceutical ingredient. All experiments were conducted in triplicate.
For orientation: The colour change of resazurin is a common sign of viable cells or microbes.

The conditions of data set [5]: TGA, parent compound; cited from earlier work.
Setting [6] is: 0.25 mg·L^−1, 24 h exposure, Figure 4a.
Where [7] appears, read: 25 mg·L^−1, 24 h exposure, Figure 4b.
The mark [8] stands for this setting: 50 mg·L^−1 (highest concentration).

Take `O=C(O)c1cn(C2CC2)c2cc(N3CCNCC3)c(F)cc2c1=O.O=S(=O)(NS(=O)(=O)C(F)(F)C(F)(F)F)C(F)(F)C(F)(F)F` [[Cip][BETI]]: in data set [1], the Tonset was 284.61 °C, the “Residue at 500 °C” value was 35.43%, the Tpeak was found to be 294.04 °C and the Tstart was determined as 266.25 °C. The “logKO/W ± SD” value in data set [2] is on record as −0.314 ± 0.094.

`CCCCC(CC)COC(=O)CC(C(=O)OCC(CC)CCCC)S(=O)(=O)O.O=C(O)c1cn(C2CC2)c2cc(N3CCNCC3)c(F)cc2c1=O` (stereo not shown) [[Cip][Doc]]: in data set [1], the Tonset came to 286.49 °C, the “Residue at 500 °C” value turned out to be 24.26%, the Tpeak turned out to be 286.64 °C and the Tstart was 252.18 °C. In data set [2], the “logKO/W ± SD” value stood at 0.162 ± 0.015 and the “relative hydrophobicity from log KO/W” value was “most hydrophobic”.

With `C[C@H](CCC(=O)O)[C@H]1CC[C@H]2[C@@H]3CC[C@@H]4C[C@H](O)CC[C@]4(C)[C@H]3C[C@H](O)[C@]12C.O=C(O)c1cn(C2CC2)c2cc(N3CCNCC3)c(F)cc2c1=O` [[Cip][Dxc]], the “antibacterial performance (bacterial growth) against S. aureus” value (from here on “antibacterial performance”) in data set [3] (setting [6]) is reported as “least antimicrobial agent of all tested samples”. Further, the “antibacterial performance” value in data set [3] (setting [7]) is listed as “significant differences from their corresponding precursors; also recorded: least antimicrobial agent of all tested samples”. Besides, in data set [1], the Tonset was 326.23 °C, the “Residue at 500 °C” value is 19.75%, the Tpeak was 332.30 °C and the Tstart came out at 211.93 °C. In addition, the “cytotoxicity to L929 cells (cell viability)” value (“cytotoxicity to L929 cells” below) in data set [4] (setting [8]) is given as “some levels of cell toxicity; also recorded: slight toxicity”. Also, in data set [2], the “logKO/W ± SD” value was −1.110 ± 0.018 and the “relative hydrophobicity from log KO/W” value was “most hydrophilic”.

`O=C(O)c1cn(C2CC2)c2cc(N3CCNCC3)c(F)cc2c1=O` [[Cip][HCl], Ciprofloxacin hydrochloride monohydrate]: in data set [5], the Tonset was 300 °C, the Tpeak is 318 °C and the Tstart was 150 °C.

For `O=C(O)c1cn(C2CC2)c2cc(N3CCNCC3)c(F)cc2c1=O.O=S(=O)(NS(=O)(=O)C(F)(F)F)C(F)(F)F` [[Cip][NTF2]], the “antibacterial performance” value in data set [3] (setting [6]) is “activities closer to their precursor”. In addition, in data set [1], the Tonset is 287.79 °C, the “Residue at 500 °C” value worked out at 39.88%, the Tpeak is 295.18 °C and the Tstart was found to be 263.57 °C. Further, the “logKO/W ± SD” value in data set [2] amounted to 0.145 ± 0.075.

As for `O=C(O)c1cn(C2CC2)c2cc(N3CC[NH2+]CC3)c(F)cc2c1=O.c1ccc([B-](c2ccccc2)(c2ccccc2)c2ccccc2)cc1` [[Cip][TPB]], in data set [1], the Tonset came out at 117.85 °C, the “Residue at 500 °C” value turned out to be 36.93%, the Tpeak was determined as 122.95 °C and the Tstart turned out to be 98.94 °C. The “cytotoxicity to L929 cells” value in data set [4] (setting [8]) is on record as “some levels of cell toxicity”. Moreover, in data set [2], the “logKO/W ± SD” value is given as −0.464 ± 0.006.

In the case of `COc1c(N2C[C@@H]3CCCN[C@@H]3C2)c(F)cc2c(=O)c(C(=O)O)cn(C3CC3)c12.O=S(=O)(NS(=O)(=O)C(F)(F)C(F)(F)F)C(F)(F)C(F)(F)F` [[Mox][BETI]], in data set [1], the Tonset came to 307.46 °C, the “Residue at 500 °C” value came to 32.31%, the Tpeak is 322.97 °C and the Tstart stood at 266.98 °C.

Consider `CCCCC(CC)COC(=O)CC(C(=O)OCC(CC)CCCC)S(=O)(=O)O.COc1c(N2C[C@@H]3CCCN[C@@H]3C2)c(F)cc2c(=O)c(C(=O)O)cn(C3CC3)c12` [[Mox][Doc]], for which, in data set [3] (setting [6]), the “antibacterial performance” value is “activities closer to their precursor”. The “antibacterial performance” value in data set [3] (setting [7]) is listed as “significant differences from their corresponding precursors”. Also, in data set [1], the Tonset came out at 271.04 °C, the “Residue at 500 °C” value was 33.55%, the Tpeak turned out to be 275.90 °C and the Tstart stood at 249.91 °C.

With `COc1c(N2C[C@@H]3CCCN[C@@H]3C2)c(F)cc2c(=O)c(C(=O)O)cn(C3CC3)c12.C[C@H](CCC(=O)O)[C@H]1CC[C@H]2[C@@H]3CC[C@@H]4C[C@H](O)CC[C@]4(C)[C@H]3C[C@H](O)[C@]12C` [[Mox][Dxc]], in data set [1], the Tonset was found to be 275.22 °C, the “Residue at 500 °C” value is given as 15.60%, the Tpeak came out at 284.97 °C and the Tstart was determined as 208.92 °C.

With `COc1c(N2C[C@@H]3CCCN[C@@H]3C2)c(F)cc2c(=O)c(C(=O)O)cn(C3CC3)c12` [[Mox][HCl], moxifloxacin hydrochloride monohydrate], in data set [5], the Tonset is 240 °C, the Tpeak is 260 °C and the Tstart is 220 °C.

For the molecule `COc1c(N2C[C@@H]3CCCN[C@@H]3C2)c(F)cc2c(=O)c(C(=O)O)cn(C3CC3)c12.O=S(=O)(NS(=O)(=O)C(F)(F)F)C(F)(F)F` [[Mox][NTF2]], in data set [1], the Tonset came out at 319.64 °C, the “Residue at 500 °C” value was found to be 24.57%, the Tpeak came to 327.51 °C and the Tstart turned out to be 297.72 °C. For the same molecule, in data set [4] (setting [8]), the “cytotoxicity to L929 cells” value was “slight toxicity”.

Consider `COc1c(N2C[C@@H]3CCC[NH2+][C@@H]3C2)c(F)cc2c(=O)c(C(=O)O)cn(C3CC3)c12.c1ccc([B-](c2ccccc2)(c2ccccc2)c2ccccc2)cc1` [[Mox][TPB]], for which the “antibacterial performance” value in data set [3] (setting [6]) is reported as “activities closer to their precursor”. The “antibacterial performance” value in data set [3] (setting [7]) is listed as “significant differences from their corresponding precursors”. For the same molecule, in data set [1], the Tonset worked out at 176.37 °C, the “Residue at 500 °C” value came to 42.13%, the Tpeak was 177.21 °C and the Tstart worked out at 144.02 °C.

For `c1ccc([B-](c2ccccc2)(c2ccccc2)c2ccccc2)cc1` [[Na][TPB], sodium tetraphenylborate, reference compound], in data set [4] (two highest concentrations (25 and 50 mg·L^−1)), the “cytotoxicity to L929 cells” value is “cytotoxic”.
